Results published in US10265298B2, “Method of increasing the bioavailability of silybin” (Macau University of Science and Technology, priority 2017, dated 2019).

Key:
[1] = tested on: Caco-2 cells; test: Glucuronidation of silybin in Caco-2 cells (LC-MS peak area of silybin glucuronides); assay type: in vitro ADME, human; conditions: silybin 10 μM, test compound 20 μM co-incubation; for inhibition at 20 µM: Homo sapiens, Caco-2, read-out: inhibition on the glucuronide conjugation of silybin
Method: The analysis of silybin and total concentrations of glucuronides and sulfates was performed on an Agilent HP 1100 LC-MS system (Agilent, CA). A Waters ACQUITY UPLC® BEH C18 Column (1.7 μm, 2.1×50 mm, Waters Corp., Ireland) was used for detection with a C18 Security Guard cartridge (4×2.0 mm i.d., Phenomenex, Torrance, Calif.). Silybin A and silybin B were well separated using optimized gradient elution with methanol (mobile phase B) and 0.1% formic acid in water (mobile phase A) as mobile phase at a flow rate of 0.4 ml/min with a run time of 10 minutes. The gradient employed was as follows (time: mobile phase B percentage): 0 min: 25%, 6 minutes: 40%, 6.5 minutes: 25%.
MS parameters including: capillary voltage, −4000 V; nebulizer pressure, 40 pounds per square inch (psi); drying gas, 9 liters per minute (L/min); drying gas temperature, 325° C.; fragment voltage, 35 volts; dwell time, 200 milliseconds (ms); scan mode, selective ion monitoring (SIM) with [M-H]− for silybin (mass-to-charge ratio (m/z) 481), mono-glucuronide (m/z 657), and NG (m/z 271), respectively. LC-MS data were obtained by Agilent ChemStation Software.
Silybin is primarily metabolized to glucuronide (about 55%) and sulfate (about 28%) conjugates in human plasma after oral administration. To examine whether the co-incubation of flavonoids could affect the conjugation of silybin, the peak area of silybin glucuronides was measured by LC-MS (FIG. 6). Identification of glucuronides in the samples was based on their MS in-source fragmentations (m/z 657).

[2] = tested on: Caco-2 cell monolayers; test: Bidirectional transport across Caco-2 cell monolayers; conditions: Ko143 at 0.5 μM (BCRP inhibitor); quinidine at 20 μM (P-gp inhibitor)
Method: (§1) Human colorectal adenocarcinoma-2 (Caco-2) cells was obtained from American Type Culture Collection (Manassas, Va.) and frozen at −80° C. For transport study, cells were cultured at 37° C./5% CO2 in Dulbecco's modified Eagle's medium supplemented with 10% fetal bovine serum, 1% nonessential amino acids, and 1% penicillin-streptomycin. […] The culture medium was changed 24 hours after seeding to remove cell debris and dead cells; after which the medium was changed on alternate days. Monolayers were used for transport assays between 21 and 23 days for Caco-2 cells. Prior to transport study, cell monolayers were certified based on internal criteria on transepithelial electrical resistance (TEER) values.
(§2) Prior to transport study, cell monolayers were certified based on our internal criteria on transepithelial electrical resistance (TEER) values, and only monolayers that met the acceptance criteria (transepithelial electrical resistance >500 Ω·cm^2 for Caco-2 cells and >200 Ω·cm^2 for MDCK cells) were selected for transport studies.
(§3) Bidirectional transport assays in human colorectal adenocarcinoma 2 (Caco-2) and Madin-Darby canine kidney II (MDCK II) was carried out by dosing substrates in assay buffer to either the apical chamber (A-to-B) or the basolateral chamber (B-to-A); cells were then incubated at 37° C. with shaking at 50 rotations per minute (rpm), and 100 μl samples were collected at 30, 60, 90, 120 and 180 minutes from the basolateral chamber to study the drug transport of AP to BL, or apical chamber to study the drug transport of BL to AP. Cell monolayers were then washed twice with ice-cold assay buffer and lysed with methanol on ice for 10 minutes. For inhibition studies, Caco-2 or MDCK II cell monolayers were pre-incubated with an inhibitor in both apical and basolateral chambers for 30 minutes, and bidirectional transport of 10 μM silybin was conducted in the absence (control) or presence of the inhibitor in both chambers. […] For fluorescence intensity detection, samples collected from AP or BL side were immediately detected in 96 well black plate by Microplate ultraviolet-visible spectroscopy (UV/VIS) spectrophotometer (TECAN infinite M200 PRO, Männedorf, Switzerland). In all cases, each determination was performed in triplicate.
(§4) The apparent permeability coefficients (Papp) were calculated as Papp=dQ/dt×1/(C“0”A) where dQ/dt (mM/sec) is the rate of permeation of the drug across the cells, C0 (millimolar (mM)) is the donor compartment concentration at time zero and A (cm^2) is the area of the cell monolayer. C0 is obtained from analysis of the dosing solution at the start experiment. Efflux Ratio (ER)=Papp (B to A)/Papp (A to B), while Papp (B−A) is the Papp value measured in the B to A direction, and Papp (A−B) is the Papp value measured in the A to B direction. 1.5 Preparation of Rat Sandwich-Cultured Hepatocytes

[3] = in vitro; assay type: in vitro ADME, rat; conditions: male, Sprague Dawley, rat
Method: Sandwich-cultured rat hepatocytes (SCHs) were established according to previously described methods with minor modifications. Primary rat hepatocytes were isolated from male Sprague Dawley® (SD) rats (220-270 g) using a collagenase perfusion as described previously and plated at a density of 7.4×10^5 cells/2 ml/well onto six-well BioCoat plates. Approximately 24 hours later, hepatocytes were overlaid with 2 ml of 0.25 mg/ml BD Matrigel basement membrane matrix in Dulbecco's modified Eagle medium (DMEM) containing 1% volume by volume percentage (v/v) insulin/transferrin/selenium culture supplement, […] dexamethasone, 2 mM L-glutamine, 1% (v/v) minimum essential medium nonessential amino acids, 1% penicillin-streptomycin. Hepatocytes were cultured for 4 days to allow extensive formation of canalicular networks between cells before experimentation and the medium was changed daily.
Sandwich-cultured hepatocytes (SCHs) were pre-incubated in 2 milliliters (ml) of warm Hank's Balanced Salt Solution (HBSS) with or without Ca^2+ at 37° C. for 15 minutes; the tight junctions of the bile canaliculi open temporally after exposure to HBSS without Ca^2+. Subsequently, cells were incubated at 37° C. for 20 minutes with 1.5 ml of standard HBSS containing silybin (10 μM), or MK 571 (50 μM) as a positive control, or baicalein (25, 15.8, 5, 1.58, 0.5, 0.16 μM), or tangeretin (25, 15.8, 5, 1.58, 0.5 μM). After 20 min, cells were washed three times with ice-cold standard HBSS. The cell samples were lysed by sonication in 1 ml of water for 5 seconds with the ultrasonic cell disruption system (SONICS & […], INC., Newtown, Conn., USA). Conjugated silybin and unconjugated (free) silybin were quantified by high-performance liquid chromatography-tandem mass spectrometry (HPLC-MS/MS). Transport function was normalized to the protein content of the hepatocytes which was evaluated by bicinchoninic acid (BCA) protein assay (Pierce Chemical, Rockford, Ill.). The biliary excretion index (BEI; %) and in vitro biliary clearance (Clbiliary; ml/min/kg) were calculated by using B-CLEAR technology (Qualyst, Inc., Research Triangle Park, N.C.) based on the following equations: […]

[4] = target: MRP2 (Homo sapiens, UniProt Q92887); test: cell-based; conditions: dog, 180 min
Method: (§5) Parental Madin-Darby canine kidney II (MDCKII), multi-drug resistance gene 1-Madin-Darby canine kidney II (MDR1-MDCKII), breast cancer resistance protein-Madin-Darby canine kidney II (BCRP-MDCKII), and multi-drug resistance protein 2-Madin-Darby canine kidney II (MRP2-MDCKII) cells were kindly provided by the Netherlands Cancer Institute (Amsterdam, Netherlands) and frozen at −80° C. The MDCKII cells were cultured at 37° C./5% CO2 in Dulbecco's modified Eagle's medium supplemented with 10% fetal bovine serum, 1% nonessential amino acids, and 2% penicillin-streptomycin. The cells were seeded on transwell inserts (Corning Inc.) at a density of 2.0×10^5 cells/cm^2 and grown for 4-5 days to form confluent monolayers.
as §3, §4
(§6) (*, P<0.05;**, P<0.01; ***, P<0.001 vs absence of any inhibitor. n=3).
as §6

[5] = Bidirectional transport across Caco-2 cell monolayers; conditions: human, Caco-2
Method: as §1, §2, §3, §4

[6] = target: T1, BCRP (Homo sapiens, UniProt Q9UNQ0); test: Inhibition of pheophorbide A (Ph A) efflux in MDCKII-BCRP cell monolayers
T1 sequence (Q9UNQ0 1-655): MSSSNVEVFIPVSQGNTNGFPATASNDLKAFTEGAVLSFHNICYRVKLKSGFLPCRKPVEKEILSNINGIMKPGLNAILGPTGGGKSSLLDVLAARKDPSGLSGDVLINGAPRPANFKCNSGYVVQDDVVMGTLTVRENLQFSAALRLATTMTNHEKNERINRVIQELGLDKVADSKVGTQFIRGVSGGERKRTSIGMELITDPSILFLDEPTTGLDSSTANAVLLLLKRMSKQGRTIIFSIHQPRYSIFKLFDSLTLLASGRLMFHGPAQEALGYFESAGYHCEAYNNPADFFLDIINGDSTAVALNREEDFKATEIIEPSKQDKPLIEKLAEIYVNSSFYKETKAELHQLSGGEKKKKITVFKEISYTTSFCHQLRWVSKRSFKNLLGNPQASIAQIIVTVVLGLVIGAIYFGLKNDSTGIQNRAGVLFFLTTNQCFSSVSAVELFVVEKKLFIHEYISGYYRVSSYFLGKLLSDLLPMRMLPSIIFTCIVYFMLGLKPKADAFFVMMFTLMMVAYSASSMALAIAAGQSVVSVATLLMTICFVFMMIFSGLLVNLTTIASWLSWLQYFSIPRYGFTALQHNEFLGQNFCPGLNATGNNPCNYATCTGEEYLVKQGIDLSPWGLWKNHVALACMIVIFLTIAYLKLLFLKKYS
Method: as §5, §3, §4, §6, §6

MRP2, sequence (Q92887 whole entry): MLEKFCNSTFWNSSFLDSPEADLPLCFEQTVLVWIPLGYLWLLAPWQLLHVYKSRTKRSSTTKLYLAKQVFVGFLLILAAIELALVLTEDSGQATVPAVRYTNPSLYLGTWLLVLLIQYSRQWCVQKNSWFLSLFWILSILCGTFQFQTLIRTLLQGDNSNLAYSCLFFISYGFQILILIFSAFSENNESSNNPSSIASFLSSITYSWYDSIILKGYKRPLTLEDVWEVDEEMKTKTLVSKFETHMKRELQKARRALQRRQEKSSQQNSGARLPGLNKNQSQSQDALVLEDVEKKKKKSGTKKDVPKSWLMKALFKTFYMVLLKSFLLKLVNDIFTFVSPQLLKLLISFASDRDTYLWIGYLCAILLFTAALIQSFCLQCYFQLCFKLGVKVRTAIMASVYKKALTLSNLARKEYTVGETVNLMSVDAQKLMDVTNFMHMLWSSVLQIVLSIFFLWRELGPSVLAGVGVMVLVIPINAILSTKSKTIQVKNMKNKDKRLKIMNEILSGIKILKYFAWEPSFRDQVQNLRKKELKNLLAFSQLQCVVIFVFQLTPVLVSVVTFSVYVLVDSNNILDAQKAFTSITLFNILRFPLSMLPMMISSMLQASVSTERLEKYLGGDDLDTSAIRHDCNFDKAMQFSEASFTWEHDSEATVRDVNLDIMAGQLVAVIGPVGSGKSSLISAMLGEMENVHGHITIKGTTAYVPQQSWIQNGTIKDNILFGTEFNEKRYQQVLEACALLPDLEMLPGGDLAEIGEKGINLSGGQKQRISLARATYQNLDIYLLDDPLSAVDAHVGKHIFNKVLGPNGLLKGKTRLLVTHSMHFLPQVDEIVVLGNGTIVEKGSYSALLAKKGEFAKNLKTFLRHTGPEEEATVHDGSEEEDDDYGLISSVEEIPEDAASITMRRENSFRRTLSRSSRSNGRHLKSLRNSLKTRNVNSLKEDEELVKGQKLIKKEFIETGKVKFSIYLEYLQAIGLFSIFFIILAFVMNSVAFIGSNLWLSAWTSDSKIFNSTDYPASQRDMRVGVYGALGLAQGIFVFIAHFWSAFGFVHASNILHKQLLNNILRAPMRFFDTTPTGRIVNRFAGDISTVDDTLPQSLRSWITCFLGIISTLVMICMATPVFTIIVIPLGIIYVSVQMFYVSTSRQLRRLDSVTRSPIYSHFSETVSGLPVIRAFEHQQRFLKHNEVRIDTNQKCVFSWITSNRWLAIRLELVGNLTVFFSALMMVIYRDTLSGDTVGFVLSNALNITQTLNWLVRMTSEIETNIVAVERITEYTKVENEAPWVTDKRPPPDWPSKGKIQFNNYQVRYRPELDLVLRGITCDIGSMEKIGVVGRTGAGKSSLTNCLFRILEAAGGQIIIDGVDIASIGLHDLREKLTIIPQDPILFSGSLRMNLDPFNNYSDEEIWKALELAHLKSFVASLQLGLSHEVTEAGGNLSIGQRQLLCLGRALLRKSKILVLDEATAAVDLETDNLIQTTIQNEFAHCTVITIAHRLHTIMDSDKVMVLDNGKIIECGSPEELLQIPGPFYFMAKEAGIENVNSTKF

Row | Compound | effect on glucuronide metabolites / glucuronide conjugation of silybin [1] | inhibition at 20 µM [1] [%] | also measured
1 | O=C(O[C@@H]1Cc2c(O)cc(O)cc2O[C@@H]1c1ccc(O)c(O)c1)c1cc(O)c(O)c(O)c1 [(−)-ECG] | did not significantly inhibit the conjugation | – | –
2 | COc1ccc2c3c([nH]c2c1)[C@H](CC(C)C)N1C(=O)[C@H](CCC(=O)OC(C)(C)C)NC(=O)[C@@H]1C3 [Ko143, (3S,6S,12aS)-1,2,3,4,6,7,12,12a-octahydro-9-methoxy-6-(2-methylpropyl)-1,4-dioxo-pyrazino[1′,2′:1,6]pyrido[3,4-b]indole-3-propanoic acid 1,1-dimethylethyl ester] | – | – | effect of efflux transporter inhibitor on efflux/absorption of silybin [2]: inhibited the efflux ratio of silybin
3 | CN(C)C(=O)CCSC(SCCC(=O)[O-])c1cccc(/C=C/c2ccc3ccc(Cl)cc3n2)c1.[Na+] (centres unmarked) [MK571, (E)-3-[[[3-[2-(7-chloro-2-quinolinyl)ethenyl]phenyl][[3-(dimethylamino)-3-oxopropyl]thio]methyl]thio]-propanoic acid, sodium salt] | almost undetected | – | inhibition at 20 min, 50 μM [3]: 100%; efflux ratio of CDCFDA in the presence of inhibitor [4]: 1.11
4 | O=C(O)[C@H]1O[C@@H](Oc2cc3oc(-c4ccccc4)cc(=O)c3c(O)c2O)[C@H](O)[C@@H](O)[C@@H]1O [baicalin] | – | > 50 | –
5 | COc1ccc2c(c[n+](C)c3c4cc5c(cc4ccc23)OCO5)c1OC [chelerythrine] | did not significantly inhibit the conjugation | – | –
6 | O=c1cc(-c2ccccc2)oc2cc(O)cc(O)c12 [chrysin] | – | > 50 | –
7 | COc1cc(/C=C/C(=O)CC(=O)/C=C/c2ccc(O)c(OC)c2)ccc1O [curcumin] | – | > 50 | –
8 | O=C1c2c(O)cc(O)cc2O[C@H](c2cc(O)c(O)c(O)c2)[C@H]1O [dihydromyricetin] | – | > 50 | –
9 | COc1ccc(-c2cc(=O)c3c(O)cc(O)cc3o2)cc1O [diosmetin] | almost undetected | – | –
10 | O=c1c(O)c(-c2ccc(O)c(O)c2)oc2cc(O)ccc12 [fisetin] | – | > 50 | –
11 | O=c1c(O)c(-c2ccccc2)oc2cc(O)cc(O)c12 [galangin] | almost undetected | – | –
12 | O=c1c(-c2ccc(O)cc2)coc2cc(O)cc(O)c12 [genistein] | – | – | Papp at 180 min [5]: 13 ×10⁻⁶ cm/s
13 | COc1ccc([C@@H]2CC(=O)c3c(O)cc(O[C@@H]4O[C@H](CO[C@@H]5O[C@@H](C)[C@H](O)[C@@H](O)[C@H]5O)[C@@H](O)[C@H](O)[C@H]4O)cc3O2)cc1O [hesperidin] | did not significantly inhibit the conjugation | – | –
14 | COc1cc(-c2oc3cc(O)cc(O)c3c(=O)c2O)ccc1O [isorhamnetin] | – | > 50 | –
15 | COc1ccc(-c2oc3cc(O)cc(O)c3c(=O)c2O)cc1 [kaempferide] | – | > 50 | –
16 | O=c1c(O)c(-c2ccc(O)cc2)oc2cc(O)cc(O)c12 [kaempferol] | – | > 50 | –
17 | O=c1cc(-c2ccc(O)c(O)c2)oc2cc(O)cc(O)c12 [luteolin] | almost undetected | – | –
18 | O=c1c(O)c(-c2ccc(O)cc2O)oc2cc(O)cc(O)c12 [morin] | almost undetected | – | –
19 | O=c1c(O)c(-c2ccc(O)c(O)c2)oc2cc(O)cc(O)c12 [quercetin] | – | > 50 | –
20 | Oc1ccc(C=Cc2cc(O)cc(O)c2)cc1 [resveratrol] | almost undetected | – | –
21 | pheophorbide A [Ph A] | – | – | mean efflux ratio of pheophorbide A (Ph A) [6]: 2.82
